Assays:
[1] = tested on: Jurkat cells; test: Jurkat cell apoptosis (Annexin V / 7-AAD, FACS); assay type: cell-based, human; settings: 16 hrs (FIG. 23)
Experimental: FIG. 23 illustrates jurkat cells were treated with L6 and analogs in culture for 16 hrs. Cells were then stained for apoptotic marker Annexin V and cell death marker 7-AAD prior to FACS analysis.

[2] = tested on: B16 melanoma cells; test: B16 melanoma cell growth in culture (MTT assay); assay type: cell-based, mouse
Source text: (§1) L5, L6 and L6 analogs (Chembridge), mouse IFNγ ELISPOT Kit (R & D System) and antibody against pLck-pY394 or pERK1/2 (Cell Signaling) were purchased from commercial sources. Human Jurkat T cell line and murine B16 melanoma cell line (ATCC) and other cancer cell lines were maintained in […] culture medium supplemented with 10% fetal calf serum (FCS). The effects of chemical compounds on cancer cell growth in culture were quantified by MTT assays following our established procedures.

[3] = tested on: MKPs; test: induction of MKPs substrates in Jurkat cells (Western blotting); assay type: cell-based, human; settings: for differential effects on MKP substrates (pERK1/2, p38, pJNK): L6 at 1-100 ng/ml
Experimental: FIG. 22 illustrates selective induction of MKPs substrates by L6 and analogs in Jurkat human leukemic cells. Jurkat cells were treated with the compounds for 30 min in culture prior to quantification of MKPs substrates by SDS-PAGE/Western blotting.

[4] = tested on: prostate cancer DU145; test: DU145 cell growth (MTT assay); assay type: cell-based; settings: highest testing dose (5 μg/ml) (FIG. 19E)
Source text: as §1

[5] = tested on: melanoma MeI-7, colon cancer MC-26, breast cancer 4T1 and prostate cancer DU145; test: cyto-toxicity against four other cancer cell lines (MTT assay); assay type: cell-based; settings: FIGS. 19B, C and D
Source text: as §1

[6] = tested on: HT-29 human colon cancer cells; test: cytotoxicity of 5FU against HT-29 cells with L6 or analogs (MTT assay); assay type: cell-based; settings: 5FU 2 μm, 3 days, then 4 days culture (FIG. 24)
Experimental: FIG. 24 illustrates HT-29 cells were treated with L6 or the analogs in the absence or presence of 5FU (2 μm) for 3 days. After washing, the cells were cultured for 4 days prior to quantification of viable cells by MTT assays.

[7] = tested on: pERK1/2 in B16 cells; test: pERK1/2 in B16 cells (Western blotting); assay type: cell-based, mouse; settings: 10 min (FIG. 20C)
Experimental: FIG. 20 illustrates L6 induces pERK1/2 in Jurkat and B16 cells. A and B, Western blotting membranes with samples and probed for the SHP-1 substrates were stripped and then re-probed with an antibody for pERK1/2. C, B16 cells were treated with L6 or L6a6 at […] for 10 min and subjected to SDS-PAGE/Western blotting to quantify pERK1/2.

With `Cc1ccc(-n2sc3ccccc3c2=O)cc1` [L6a2] the Jurkat cell apoptosis [1] was “apoptosis were induced”, the “dose that completely killed B16 cells (killing dose)” value ([2]; FIG. 19A) was 2.5 µg/mL and the “toxicity toward B16 cells in culture” value ([2]; comparable conditions (FIG. 19A)) was “little or limited toxicity”. The “MKP predominantly targeted (as indicated by effects on the substrates)” value [3] was “targeted a p38-specific MKP”, the “differential effects on MKP substrates (pERK1/2, p38, pJNK)” value ([3]; 30 min (FIG. 22)) was “selectively induced p38 phosphorylation” and the DU145 cell growth [4] was “failed to affect DU145 cell growth”. The “killing dose relative to L6 and L6a6” value [5] was 5-10 folds higher.

`Cc1cc(-n2sc(Cl)c(C)c2=O)ccc1Cl` [L6a6] was tested, and the Jurkat cell apoptosis [1] was “apoptosis were induced”, the “augmentation of 5FU cytotoxicity against HT-29 cells” value [6] was “augmented” and the “MKP predominantly targeted (as indicated by effects on the substrates)” value [3] was “mainly acted against MKP1”. For the same compound, the “dose inducing pJNK and p-p38” value ([3]; 30 min (FIG. 22)) was no less than 1 ng/ml, the “differential effects on MKP substrates (pERK1/2, p38, pJNK)” value ([3]; 30 min (FIG. 22)) was “induced pERK1/2 only at the high doses” and the “induction of pERK1/2 in B16 cells” value [7] was “pERK1/2-inducing activity”.
